Experimental data published in US20210015134A1, “CONSUMABLES” (Givaudan S.A., priority 2006, published 2021).

Experiments:
Format in all cases: in vivo
[1] = tested on: sweet sensitive panelists; assay: Comparative sensory evaluation of sweetness enhancers in sweetener solution or water (Example 1)
Procedure: Comparative sensory evaluation of sweetness enhancers in 2 or 7% sucrose
The test samples contained the potential sweetness enhancers in 0% sucrose (water), 2% sucrose, or 7% sucrose, and control samples of 0%, 2% and 7% sucrose without any additive. The sensory evaluations were conducted as follows. All samples were presented at ambient temperature in 15 ml aliquots to panels consisting of 5-9 sweet sensitive subjects of varying sweet sensitivity. After tasting each sample, the mouth was rinsed thoroughly with water at ambient temperature prior to tasting the next sample. The sucrose positive control (2% or 7%) was presented first and served as the sweetness reference to which all sweetness enhancer/sucrose combinations were directly compared.
One tasting sequence included tasting the sucrose control first, rinsing with water, tasting the sweetness enhancer/sucrose sample, rinsing with water followed by tasting the sucrose control again. Once the sequence was completed, each panelist chose the sample which was sweeter and evaluated the sweetness of each sample relative to one another.
In a second tasting sequence, this same procedure was followed for the water negative control versus the sweetness enhancer/water samples to determine the sweet taste due to the sweetness enhancer itself at each tested concentration.
Panelists evaluated the sweetness of the sweetness enhancer in water for each concentration. For their evaluation, panelists were allowed to compare any perceived sweetness of the sweetness enhancer to the 2% or 7% sucrose control to determine the relative intensity of sweetness. Mild sweet taste corresponds to the taste of 2% sucrose, strong sweet taste corresponds to the taste of 7% sucrose.
Alternatively to sucrose, the evaluation may be performed with another sweetener, for example, high fructose (55%) corn syrup (HFCS, containing 55% fructose and 45% glucose), erythritol, sucralose, aspartame, or acesulfame potassium (AceK).

[2] = tested on: sweet sensitive panelists; assay: Ranking test, near threshold sweetness isointensity of enhancer in water (Example 3b)
Procedure: The sensory evaluation was conducted using a ranking method. Samples at ambient temperature were randomly presented in 15 ml blind aliquots (unidentifiable by panelists). […] After tasting each sample, the mouth was rinsed thoroughly with water at ambient temperature prior to tasting the next sample. […] They were asked to rank the samples from low to high with respect to perceived sweet taste.

[3] = tested on: sweet sensitive panelists; assay: Paired comparison of sweetness enhancers in water versus sucrose (Example 4, modified)
Procedure: Paired Comparisons of Sweetness Enhancers and Mixtures Thereof in Water and 7% Sucrose
Samples of sweetness enhancers were prepared in water or 7% sucrose. One, two or three sweetness enhancers were used in a sample. All samples were presented to panelists at ambient temperature. The sensory evaluation was conducted using a paired comparison method. […] Samples were paired randomly and presented in unidentifiable pairs of two (left and right) to the panelists in random order. The sample on the left was tasted first, followed by rinsing the mouth with water, then tasting the sample on the right. Once completing the sequence, each panelist ranked the pair of samples for sweetness then evaluated samples with respect to one another with the following descriptors (in ascending order): […]

[4] = tested on: sweet sensitive panelists; assay: Ranking test, sweetness isointensity of enhancer in sweetener solution (Example 3a)
Procedure: Ranking Tests to Determine the Sweetness Isointensity of Sweetness Enhancers to Sucrose Solutions
For comparative ranking, samples of 0.5%, 1%, 1.5%, 7%, 8%, 9%, 10% and 11% sucrose solutions were prepared.
3a) Sweetness Isointensity of Sweetness Enhancer in Sucrose Solutions
The sensory evaluation was conducted using a ranking method. Samples at ambient temperature were randomly presented in 15 ml blind aliquots (unidentifiable by panelists). Panels consisted of 10 sweet sensitive subjects and samples were presented in 4 replications over 2 sessions. After tasting each sample, the mouth was rinsed thoroughly with water at ambient temperature prior to tasting the next sample. Panelists were presented with 7%, 8%, 9%, 10%, 11% sucrose samples and a sixth sample of 7% sucrose with a sweetness enhancer in a concentration near its sweetness detection threshold. They were asked to rank the samples from low to high with respect to perceived sweet taste. R-indices were calculated for 7% sucrose with the sweetness enhancer versus 7%, 8%, 9%, 10% or 11% sucrose.

[5] = 45 ppm in water vs 0.5% sucrose
[6] = 60 ppm in water vs 1.5% sucrose

Structure (SMILES): C[C@@H]1O[C@@H](OC2C(Oc3cc(O)c(C(=O)CCc4ccc(O)cc4)c(O)c3)OC(CO)C(O)C2O)[C@H](O)[C@H](O)[C@H]1O (stereo in doubt) [NarDHC, -[4-[[2-O-(6-Deoxy-L-mannopyranosyl)-D-glucopyranosyl]oxy]-2,6-dihydroxyphenyl]-3-(4-hydroxyphenyl)-1-propanone]
- Sensory evaluation of sweetness intensity ([1]; 20 ppm in 2% sucrose): notably sweeter than sucrose control
- Sensory evaluation of sweetness intensity ([1]; 20 ppm in water): barely perceived delayed sweetness vs. 2% sucrose
- Sensory evaluation of sweetness intensity ([1]; 60 ppm in 2% sucrose): much sweeter than sucrose control
- Sensory evaluation of sweetness intensity ([1]; 60 ppm in water): very weak delayed sweetness far below 2% sucrose
- Sensory evaluation of sweetness intensity ([1]; 100 ppm in 2% sucrose): substantially sweeter than 2% sucrose control
- Sensory evaluation of sweetness intensity ([1]; 100 ppm in water): mild sweetness slightly below 2% sucrose control
- isointensity to sucrose solution ([2]; 45 ppm in water): 0.5 % sucrose
- sample sweetness (NarDHC, 45 ppm) [2, 5]: Isosweet
- sample sweetness (NarDHC, 45 ppm) ([2]; 45 ppm in water vs 1% sucrose): less sweet
- sample sweetness (NarDHC, 60 ppm) ([2]; 60 ppm in water vs 0.5% sucrose): sweeter
- sample sweetness (NarDHC, 60 ppm) ([2]; 60 ppm in water vs 1% sucrose): sweeter
- sample sweetness (NarDHC, 60 ppm) [2, 6]: less sweet
- Result of comparison ([3]; 45 ppm in water vs 0% sucrose): weakly sweeter
- Result of comparison [3, 5]: isosweet
- Result of comparison ([3]; 45 ppm in water vs 1% sucrose): less sweet
- Result of comparison ([3]; 50 ppm in water vs 0.5% sucrose): notably sweeter
- Result of comparison ([3]; 50 ppm in water vs 1% sucrose): less sweet
- isointensity to sucrose solution ([3]; 55 ppm in water): 1 % sucrose
- Result of comparison ([3]; 55 ppm in water vs 0.5% sucrose): notably sweeter
- Result of comparison ([3]; 55 ppm in water vs 1% sucrose): isosweet
- Result of comparison ([3]; 60 ppm in water vs 1% sucrose): notably sweeter
- Result of comparison [3, 6]: significantly less sweet
- added sucrose sweetness intensity ([4]; 45 ppm in 7% sucrose): 1 ° Brix
- sweetness isointensity to sucrose ([4]; 45 ppm in 7% sucrose): 8 % sucrose
- NarDHC sample sweetness ([4]; 45 ppm in 7% sucrose vs 7% sucrose): sweeter
- NarDHC sample sweetness ([4]; 45 ppm in 7% sucrose vs 8% sucrose): isosweet
- NarDHC sample sweetness ([4]; 45 ppm in 7% sucrose vs 9% sucrose): less sweet
- NarDHC sample sweetness ([4]; 45 ppm in 7% sucrose vs 10% sucrose): less sweet
- NarDHC sample sweetness ([4]; 45 ppm in 7% sucrose vs 11% sucrose): less sweet
- added sucrose sweetness intensity ([4]; 60 ppm in 7% sucrose): 2 ° Brix
- sweetness isointensity to sucrose ([4]; 60 ppm in 7% sucrose): 9 % sucrose
- NarDHC sample sweetness ([4]; 60 ppm in 7% sucrose vs 7% sucrose): Sweeter
- NarDHC sample sweetness ([4]; 60 ppm in 7% sucrose vs 8% sucrose): Sweeter
- NarDHC sample sweetness ([4]; 60 ppm in 7% sucrose vs 9% sucrose): Isosweet
- NarDHC sample sweetness ([4]; 60 ppm in 7% sucrose vs 10% sucrose): less sweet
- NarDHC sample sweetness ([4]; 60 ppm in 7% sucrose vs 11% sucrose): less sweet
